Experimental data taken from patent US4335247A, “Novel nitrosourea derivatives and process for their production” (Kowa Co., Ltd., priority 1980, dated 1982).
Like-named read-outs stand apart in the source and are kept apart here.

Legend:
[1] = Acute toxicity (median lethal dose, intraperitoneal); conditions: mouse, in vivo, ip; intraperitoneal injection, ddy mice, Litchfield-Wilcoxon method
Protocol: The median lethal dose (LD50) of each of the test compounds was determined by the Litchfield-Wilcoxon method after the intraperitoneal injection of the compound into ddy mice.

[2] = system: P388 cancer cell; test: Anti-tumor test, P388-inoculated mice (survival effect); assay type: in vivo; conditions: Mus musculus, P388, ip, intraperitoneal, CDF1 mice; for response vs control in vivo at 12.5 mg/kg / responders at 12.5 mg/kg: 12.5 mg/Kg/day; for response vs control in vivo at 25 mg/kg / responders at 25 mg/kg: 25 mg/Kg/day; for response vs control in vivo at 50 mg/kg / responders at 50 mg/kg: 50 mg/Kg/day
Protocol: Each experimental group was composed of six CDF1 mice. The mice were inoculated intraperitoneally with 10^6 P388 cancer cell, and the test compounds suspended in a gum arabic were administered intraperitoneally to the animals 24 hours and 5 days, respectively, after the inoculation. The survival effect of each of the compounds was expressed by the percentage of the survival days of the treated animals in each group relative to those of the control animals.

[3] = 24 hours and 5 days after inoculation, read-out: Survival Effect T/C
[4] = of six mice, read-out: Cure (converted)
[5] = of six mice, read-out: Tumored Survivors (converted)
[6] = 100 mg/Kg/day, 24 hours and 5 days after inoculation, read-out: Survival Effect T/C

SMILES | LD50 [1] [mg/kg] | response vs control in vivo at 12.5 mg/kg [2, 3] [%] | responders at 12.5 mg/kg [2, 4] [%] | responders at 12.5 mg/kg [2, 5] [%] | response vs control in vivo at 25 mg/kg [2, 3] [%] | responders at 25 mg/kg [2, 4] [%] | response vs control in vivo at 50 mg/kg [2, 3] [%] | responders at 50 mg/kg [2, 4] [%] | responders at 50 mg/kg [2, 5] [%] | responders at 25 mg/kg [2, 5] [%] | response vs control in vivo at 100 mg/kg [2, 6] [%] | responders at 100 mg/kg ([2]; 100 mg/Kg/day, of six mice, read-out: Cure (converted)) [%] | response vs control in vivo at 6.25 mg/kg ([2]; 6.25 mg/Kg/day, 24 hours and 5 days after inoculation, read-out: Survival Effect T/C) [%]
O=NN(CCCl)C(=O)N[C@@H](Cc1ccccc1)C(=O)Nc1nncs1 [J] | 74 | 297 | 33.3 | 16.7 | 297 | 83.3 | 297 | 66.7 | 16.7 |  |  |  | 
O=NN(CCCl)C(=O)N[C@@H](C(=O)Nc1nncs1)c1ccccc1 [I] | 69 | 297 | 33.3 | 16.7 | 297 | 33.3 | 297 | 83.3 |  | 33.3 |  |  | 
O=NN(CCCl)C(=O)Nc1nncs1 [A] | 78 | 170 |  |  | 173 |  | 172 |  |  |  |  |  | 
O=NN(CCCl)C(=O)N[C@@H](Cc1c[nH]c2ccccc12)C(=O)Nc1nncs1 [M] | 73 |  |  |  | 294 | 83.3 | 294 | 50 | 33.3 |  | 107 | 16.7 | 
O=NN(CCCl)C(=O)NC1(C(=O)Nc2nncs2)CCCC1 [K] | 53 | 175 |  |  | 176 |  | 176 |  |  |  |  |  | 
CC(C)[C@H](NC(=O)N(CCCl)N=O)C(=O)Nc1nncs1 [D] | 49 | 281 |  |  | 291 | 83.3 |  |  |  |  |  |  | 223
CC(C)[C@H](NC(=O)N(CCCl)N=O)C(=O)O [B] | 72 |  |  |  | 230 |  | 297 | 16.7 | 16.7 |  |  |  | 
C[C@@H](O)[C@H](NC(=O)N(CCCl)N=O)C(=O)Nc1nncs1 (relative stereo) [L] | 65 | 153 |  |  | 93 | 16.7 | 81 |  |  |  |  |  | 
CC(C)C[C@@H](NC(=O)N(CCCl)N=O)C(=O)Nc1nncs1 [O] | 61 |  |  |  | 190 |  | 217 |  |  |  | 188 |  | 
CSCC[C@H](NC(=O)N(CCCl)N=O)C(=O)Nc1nncs1 [H] | 67 | 235 | 16.7 |  | 294 | 50 | 294 | 83.3 | 16.7 | 33.3 |  |  | 
CC[C@H](C)[C@H](NC(=O)N(CCCl)N=O)C(=O)Nc1nncs1 [G] | 78 | 247 | 16.7 |  | 297 | 16.7 | 297 | 50 | 33.3 | 50 |  |  | 
CC(C)CC(NC(=O)N(CCCl)N=O)C(=O)Nc1nncs1 (stereo not drawn) [E] | 82 | 220 |  |  | 303 | 33.3 | 303 | 83.3 |  | 16.7 |  |  | 
CC(C)[C@@H](NC(=O)N(CCCl)N=O)C(=O)Nc1nncs1 [N] | 68 |  |  |  | 217 | 16.7 | 99 | 33.3 |  |  |  |  | 
CC(C)C[C@H](NC(=O)N(CCCl)N=O)C(=O)Nc1nncs1 [F] | 85 | 292 | 16.7 | 16.7 | 303 | 50 |  |  |  | 33.3 |  |  | 
